Columns and labels:
[1] = tested on: Candida albicans (ATCC 10231); assay: Agar-well diffusion susceptibility test; format: cell-based; conditions: C. albicans; Control 2 for yeast, 10 mg/disc
Protocol: (§1) The pre-cultures of these pathogens were prepared through separate cultivation on Muller–Hinton broth at 37 °C for 24 h. […] After cultivation at 37 °C for 24 h, the developed inhibition zones (Halo zones) around wells indicated positive results. Amoxicillin (AX-25) and ampicillin (AM-10) were included as reference antibacterial drugs, while clotrimazole (CLT) and amphotericin-B (AmB) were applied as reference antifungal drugs.

porcine α-amylase = target: T1, porcine α-amylase (Sus scrofa, UniProt P00690); assay: Porcine α-amylase inhibition assay; format: biochemical
T1 sequence (P00690 16-511): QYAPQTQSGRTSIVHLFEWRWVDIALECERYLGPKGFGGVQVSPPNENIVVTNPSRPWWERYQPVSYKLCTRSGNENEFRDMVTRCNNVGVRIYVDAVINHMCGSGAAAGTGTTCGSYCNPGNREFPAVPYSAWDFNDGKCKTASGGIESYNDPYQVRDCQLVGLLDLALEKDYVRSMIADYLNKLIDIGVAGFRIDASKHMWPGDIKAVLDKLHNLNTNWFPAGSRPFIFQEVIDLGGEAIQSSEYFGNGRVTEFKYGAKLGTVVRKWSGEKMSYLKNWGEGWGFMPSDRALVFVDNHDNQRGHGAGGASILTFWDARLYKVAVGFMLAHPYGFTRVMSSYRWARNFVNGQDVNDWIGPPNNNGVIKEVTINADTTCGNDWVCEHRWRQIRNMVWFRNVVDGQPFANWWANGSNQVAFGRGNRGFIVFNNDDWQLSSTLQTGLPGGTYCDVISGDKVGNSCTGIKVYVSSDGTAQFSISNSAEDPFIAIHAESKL
Protocol: In this study, the inhibition activity of porcine α-amylase was evaluated following a previously reported method. […] The combination was incubated at 25 °C for a specific period, following which starch solution mixed with sodium phosphate (0.02 M pH 6.9) and sodium chloride (6 mM) was added and incubated at 25 °C for 10 min. After the incubation, 1 mL of dinitrosalicylic acid (color reagent) was included in the mixture at 100 °C for 10 min to stop the reaction, followed by chilling to 25 °C. The absorbance of the resulting combination was measured at 540 nm, after adding 1 mL of deionized water. The percentage of inhibition activity of porcine α-amylase was calculated using Equation (1).

[2] = tested on: Streptococcus mutans (ATCC 25175); assay: Agar-well diffusion susceptibility test; format: cell-based; conditions: S. mutans
Protocol: as §1

[3] = tested on: Escherichia coli (ATCC 25922); assay: Agar-well diffusion susceptibility test; format: cell-based; conditions: E. coli
Protocol: as §1

[4] = tested on: Salmonella typhimurium (ATCC 14028); assay: Agar-well diffusion susceptibility test; format: cell-based; conditions: S. typhimurium
Protocol: as §1

[5] = tested on: Staphylococcus aureus (ATCC 25923); assay: Agar-well diffusion susceptibility test; format: cell-based; conditions: S. aureus
Protocol: as §1

[6] = tested on: Pseudomonas aeruginosa (ATCC 27853); assay: Agar-well diffusion susceptibility test; format: cell-based; conditions: P. aeruginosa
Protocol: as §1

plasmid pBR322 DNA = assay: Free radical-induced (H2O2 + UV) DNA damage assay; format: biochemical
Protocol: Once the reaction was completed, the tested samples were electrophoresed through a polysaccharide agarose 0.8% gel, and we stained the electrophoresed gel with ethidium bromide. The electrophoresed gel was analyzed, and we captured photographs of the electrophoresed gel using Image Lab 4.1 software, version 6.1.0. (Bio-Rad, Hercules, CA, USA).

[7] = DPPH free radical-scavenging assay; conditions: wet basis; mean ± SD, n = 3
Protocol: The percentage inhibition of these radical compounds was determined using Equation (1):% Inhibition DPPH^• = (Abs. control − Abs. sample)/(Abs. control) × 100(1)
The absorbance of the DPPH^• mixture without the test sample was considered as the Abs. control test. Absorbance was measured with a Varian CARY 50 Scan UV–VIS Spectrophotometer equipped with a Cary 50 Microplate Reader (Varian, Inc., Walnut Creek, CA, USA).

acetylcholinesterase = acetylcholinesterase (Homo sapiens, UniProt P22303); assay: Acetylcholinesterase inhibition assay; format: biochemical
Protocol: The mixture was then incubated at room temperature for 15 min. After this, 475 µL of 3 mM DTNB solution and 75 µL of […] 15 mM were added to the mixture and incubated for an additional 30 min at room temperature. Finally, the absorbance of the mixture was measured at 405 nm, and the percentage of inhibition activity of acetylcholinesterase was calculated by Equation (1), as explained earlier.

[8] = ABTS free radical-scavenging assay; conditions: for ABTS maximum antioxidant activity: at 5 mg/mL
Protocol: The ABTS^• radicals are employed as a model system to assess the antioxidant activity of the compounds [33]. The percentage inhibition of the ABTS^• radicals by the test compounds was calculated using Equation 1, as described earlier.

[9] = Total antioxidant capacity (TAC) phosphomolybdate assay; conditions: for maximum total antioxidant capacity value (absorbance at 695 nm): at 5 mg/mL; for Total Antioxidant Capacity IC50: wet basis, mean ± SD, n = 3
Protocol: Briefly, a reagent containing sodium phosphate (28 mM), sulfuric acid (0.6 M), and ammonium molybdate (4 mM) was added to 0.1 mL of the test samples, and the mixture was incubated at 95 °C for 90 min. After cooling, the absorbance of the mixture was measured at 695 nm. A higher absorbance value indicates a greater antioxidant capacity of the tested samples.

[10] = Nitric oxide radical (NO) scavenging, Griess reaction; conditions: for NO-scavenging maximum inhibition: at 5 mg/mL; for Nitric Oxide scavenging IC50: wet basis, mean ± SD, n = 3
Protocol: The reaction mixture contained 2 mL of sodium nitroprusside (10 mM), 0.5 mL of saline phosphate buffer, and 0.5 mL of the test samples. The mixtures were incubated for 150 min at 25 °C. After incubation, 0.5 mL of the reaction mixture was combined with 1 mL of sulfanilic acid reagent (0.33% in 20% glacial acetic acid). Following a 5 min wait, 1 mL of naphthyl ethylene diamine dihydrochloride (0.1%) was added. The mixtures were left for 30 min at room temperature, and the absorbance was measured at 540 nm. The percentage of nitrites was calculated using Equation 1, as described earlier.

[11] = tested on: bovine serum albumin (BSA); assay: Protein oxidation produced by AAPH (SDS-PAGE); conditions: AAPH 20 mM, 30 min
Protocol: The mixture was then incubated in a shaking water bath for 30 min at 37 °C. A control sample not including AAPH was also prepared. After incubation, the mixture was loaded onto an SDS-PAGE 10% gel under reduction conditions for 5 min at 100 °C. Images of the stained gel were captured using a Chemi-Doc MV gel documentation system (Bio-Rad, Hercules, CA, USA). The intensity of the bands was determined to quantify the aggregate of protein damage for all bands employing Image Lab 4.1 Software version 6.1.0 (Bio-Rad, Hercules, CA, USA). […] The use of SDS-PAGE and staining methods provides a visual representation of the extent of protein damage and allows for quantification of the results.

[12] = Ferric-reducing/antioxidant power (FRAP) assay; conditions: for maximum FRAP value: at 5 mg/mL; for FRAP antioxidant inhibition activity IC50: wet basis, mean ± SD, n = 3
Protocol: The FRAP reagent was prepared by mixing TPTZ (10 mM mixture) in 40 mM HCl, FeCl3 (20 mM), and acetate buffer (pH 3.6, 0.3 M) in a ratio of 1:1:10 (v/v/v). Next, 1 mL of the test sample was mixed with 2 mL of freshly prepared FRAP reagent, and the solutions were incubated for 30 min at 37 °C. The absorbance of the resulting mixture was measured at 593 nm. Deionized water was employed as a blank, and FeSO4 was used to establish the calibration curve. The FRAP values were expressed as µmol of Fe (II).

mushroom tyrosinase = assay: Tyrosinase inhibition assay; format: biochemical; conditions: for tyrosinase inhibition: highest concentration (5 mg/mL); for Tyrosinase inhibition activity IC50: mean ± SD, n = 3
Protocol: To assess the inhibition of tyrosinase activity, a previously reported method was followed in this study. […] The mixture was incubated at 37 °C for 10 min, and then 1 mL of 50 units/mL mushroom tyrosinase liquefied in 0.2 M, pH 6.8 phosphate buffer was added. The resulting mixture was incubated for an additional 10 min, and the absorbance was measured at 475 nm. Ethanol (50%) was used as a blank, while 1 mL of deionized water was a control. The percentage of tyrosinase inhibition activity was calculated using Equation (1).

[13] = highest concentration tested (5 mg/mL)

Chain of acetylcholinesterase (P22303 32-614, species assumed): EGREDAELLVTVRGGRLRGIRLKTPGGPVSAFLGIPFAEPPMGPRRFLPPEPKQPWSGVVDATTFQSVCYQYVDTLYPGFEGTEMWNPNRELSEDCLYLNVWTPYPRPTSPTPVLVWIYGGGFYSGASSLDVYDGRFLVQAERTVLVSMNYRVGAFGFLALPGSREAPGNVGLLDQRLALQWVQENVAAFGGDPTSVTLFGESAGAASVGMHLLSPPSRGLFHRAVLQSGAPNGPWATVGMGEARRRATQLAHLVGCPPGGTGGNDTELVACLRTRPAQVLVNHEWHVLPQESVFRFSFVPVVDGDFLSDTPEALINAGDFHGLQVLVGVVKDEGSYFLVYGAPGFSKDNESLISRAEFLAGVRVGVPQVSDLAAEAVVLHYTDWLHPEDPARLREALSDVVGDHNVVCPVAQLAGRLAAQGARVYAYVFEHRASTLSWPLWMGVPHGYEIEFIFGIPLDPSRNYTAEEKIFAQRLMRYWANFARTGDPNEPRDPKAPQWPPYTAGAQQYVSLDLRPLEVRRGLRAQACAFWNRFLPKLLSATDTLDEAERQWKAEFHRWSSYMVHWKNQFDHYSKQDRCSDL

## C[C@@H]1[C@H](O)[C@@H](C)/C=C/C=C/C=C/C=C/C=C/C=C/C=C/[C@H](O[C@@H]2O[C@H](C)[C@@H](O)[C@H](N)[C@@H]2O)C[C@@H]2O[C@](O)(C[C@@H](O)C[C@@H](O)[C@H](O)CC[C@@H](O)C[C@@H](O)CC(=O)O[C@H]1C)C[C@H](O)[C@H]2C(=O)O [amphotericin-B]
[1]
  inhibition-zone diameter: 25.50 ± 2.30 mm

## C[C@H]1O[C@H](O[C@H]2[C@H](O)[C@@H](O)[C@@H](O[C@H]3[C@H](O)[C@@H](O)C(O)O[C@@H]3CO)O[C@@H]2CO)[C@H](O)[C@@H](O)[C@@H]1N[C@H]1C=C(CO)[C@@H](O)[C@H](O)[C@H]1O (some centres unmarked) [Acarbose, acarbose]
Porcine α-amylase; [13]
  inhibition at 5000 µg/mL: 99.12 ± 0.1%

## CC1(C)S[C@@H]2[C@H](NC(=O)[C@H](N)c3ccc(O)cc3)C(=O)N2[C@H]1C(=O)O [amoxicillin]
[2]; Control 1, 25 mg/disc
  inhibition-zone diameter: 37.00 ± 2.80 mm
[3]; Control 1, 25 mg/disc
  inhibition-zone diameter: 25.00 ± 2.40 mm
[4]; Control 1, 25 mg/disc
  inhibition-zone diameter: 30.00 ± 1.30 mm
[5]; Control 1, 25 mg/disc
  inhibition-zone diameter: −ve
[6]; Control 1, 25 mg/disc
  inhibition-zone diameter: 28.00 ± 2.76 mm

## CC1(C)S[C@@H]2[C@H](NC(=O)[C@H](N)c3ccccc3)C(=O)N2[C@H]1C(=O)O [ampicillin]
[2]; Control 2, 10 mg/disc
  inhibition-zone diameter: 18.00 ± 1.48 mm
[3]; Control 2, 10 mg/disc
  inhibition-zone diameter: −ve
[4]; Control 2, 10 mg/disc
  inhibition-zone diameter: 10.00 ± 0.80 mm
[5]; Control 2, 10 mg/disc
  inhibition-zone diameter: −ve
[6]; Control 2, 10 mg/disc
  inhibition-zone diameter: 13.20 ± 0.68 mm

## C[C@@H]1O[C@@H](OC[C@H]2O[C@@H](Oc3c(-c4ccc(O)c(O)c4)oc4cc(O)cc(O)c4c3=O)[C@H](O)[C@@H](O)[C@@H]2O)[C@H](O)[C@H](O)[C@H]1O [Rutin, rutin]
Plasmid pBR322 DNA
  DNA damage inhibition activity IC50: 15.00 ± 0.22 µg/mL
Porcine α-amylase
  IC50: 142 µM
Porcine α-amylase; [13]
  inhibition at 5000 µg/mL: 91.51 ± 0.51%
[7]
  DPPH antioxidant inhibition activity IC50: 417.80 ± 5.78 µg/mL
acetylcholinesterase
  IC50: 1490 µM
acetylcholinesterase; highest concentration tested (5 mg/mL), read-out: AChE activity inhibition
  inhibition at 5000 µg/mL: 15.92 ± 0.13%
[8]
  ABTS maximum antioxidant activity: 92.69 ± 0.32%
[8]; wet basis, mean ± SD, n = 3
  ABTS antioxidant inhibition activity IC50: 6.50 ± 0.08 µg/mL
[9]
  maximum total antioxidant capacity value (absorbance at 695 nm): 1.57 ± 0.01
  Total Antioxidant Capacity IC50: 17,600 ± 41.64 µg/mL
[10]
  NO-scavenging maximum inhibition: 79.01 ± 0.07%
  Nitric Oxide scavenging IC50: 270.10 ± 3.51 µg/mL
[11]
  BSA damage inhibition activity IC50: 3.68 ± 0.35 µg/mL
[12]
  maximum FRAP value: 10,644.00 ± 86.02 µmol of Fe (II)
  FRAP antioxidant inhibition activity IC50: 391.00 ± 7.46 µg/mL
Mushroom tyrosinase
  tyrosinase inhibition: 55.00 ± 0.23%
  Tyrosinase inhibition activity IC50: 494.40 ± 27.86 µg/mL

## O=c1cc(CO)occ1O [Kojic Acid, kojic acid]
Mushroom tyrosinase
  tyrosinase inhibition: 99.88 ± 0.11%

## O=C1O[C@H]([C@@H](O)CO)C(O)=C1O [VC, vitamin C]
Plasmid pBR322 DNA
  DNA damage inhibition activity IC50: 505.00 ± 21.63 µg/mL
Porcine α-amylase; [13]
  α-amylase activity inhibition: 93.18 ± 0.18%
Porcine α-amylase; mean ± SD, n = 3
  Porcine α-amylase inhibition activity IC50: 97.62 ± 8.14 µg/mL
[7]
  DPPH antioxidant inhibition activity IC50: 881.70 ± 13.38 µg/mL
[8]
  ABTS maximum antioxidant activity: 90.13 ± 0.04%
[9]
  maximum total antioxidant capacity value (absorbance at 695 nm): 0.041 ± 0.000
  Total Antioxidant Capacity IC50: 3005.00 ± 72.45 µg/mL
[10]
  NO-scavenging maximum inhibition: 56.55 ± 1.52%
  Nitric Oxide scavenging IC50: 2710.00 ± 13.35 µg/mL
[11]
  BSA damage inhibition activity IC50: 25.32 ± 1.29 µg/mL
[12]
  maximum FRAP value: 10,233.67 ± 243.72 µmol of Fe (II)
  FRAP antioxidant inhibition activity IC50: 743.60 ± 30.11 µg/mL
Mushroom tyrosinase
  tyrosinase inhibition: 98.72 ± 0.15%
  Tyrosinase inhibition activity IC50: 1881.00 ± 48.56 µg/mL

Source: paper PMC10255713, “Palm Fruit (Phoenix dactylifera L.) Pollen Extract Inhibits Cancer Cell and Enzyme Activities and DNA and Protein Damage” (Nutrients, 2023)
